# Results published in ChEMBL document CHEMBL5550180, “Enhancing anti-cancer capacity: Novel class I/II HDAC inhibitors modulate EMT, cell cycle, and apoptosis pathways” (Bioorg Med Chem, 2024).
# Experiment: Toxicity in zebrafish embryo at […] measured after 96 hrs post fertilization
# Parameters: species or system Danio rerio
# Conditions: in vivo
compound,measurement,value
NC(=O)NO [HYDROXYUREA],Activity,Toxic
